Test results as given in the supplement of paper PMC8671470.

What was measured:
Settings in all cases: 72 h
MV4-11 = assay: cell viability (% survival relative to DMSO control, bortezomib = 0%); higher = less cytotoxic
Outline: (§1)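 Fifteen myeloid leukaemia cell lines (10 AML, 5 CML) were seeded at a density titrated to the linear growth range. They went into 384-well plates with compounds pre-printed at 1, 10, 100, 1000 or 10000 nM in duplicate. After 72 h at 37 °C with 5% CO2, viability was read by CellTiter-Glo luminescence. Values are percent survival, with vehicle set to 100% and a 10 µM positive control to 0%, averaged over the duplicates.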

KG-1 = assay: as above
Outline: as §1

THP-1 = assay: as above
Outline: as §1

MOLM-13 = assay: as above
Outline: as §1

[1] = system: myeloid leukemia patient primary cells Pat.5; assay: area under dose-response curve (viability, 1 nM-10 uM) (fraction (0-1)); higher = more sensitive
Method: (§2)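 AUC (0–1, higher = more sensitive) of the 5-point dose–response (1 nM–10 µM, 72 h, CellTiter-Glo) in primary AML/CML patient mononuclear cells. 0.030103 is the floor for inactive compounds.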

[2] = system: myeloid leukemia patient primary cells Pat.10; assay: as above
Method: as §2

[3] = system: myeloid leukemia patient primary cells Pat.11; assay: as above
Method: as §2

[4] = system: myeloid leukemia patient primary cells Pat.2; assay: as above
Method: as §2

[5] = system: myeloid leukemia patient primary cells Pat.7; assay: as above
Method: as §2

[6] = system: myeloid leukemia patient primary cells Pat.9; assay: as above
Method: as §2

[7] = system: myeloid leukemia patient primary cells Pat.14; assay: as above
Method: as §2

[8] = system: myeloid leukemia patient primary cells Pat.4; assay: as above
Method: as §2

[9] = system: myeloid leukemia patient primary cells Pat.8; assay: as above
Method: as §2

[10] = system: myeloid leukemia patient primary cells Pat.12; assay: as above
Method: as §2

[11] = system: myeloid leukemia patient primary cells Pat.3; assay: as above
Method: as §2

[12] = system: myeloid leukemia patient primary cells Pat.13; assay: as above
Method: as §2

[13] = system: myeloid leukemia patient primary cells Pat.6; assay: as above
Method: as §2

[14] = system: myeloid leukemia patient primary cells Pat.15; assay: as above
Method: as §2

[15] = system: myeloid leukemia patient primary cells Pat.1; assay: as above
Method: as §2

[16] = system: myeloid leukemia patient primary cells Pat.10; assay: cell viability (% survival relative to DMSO control); higher = less cytotoxic
Outline: (§3)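 Thawed mononuclear cells from AML or CML patients were purified on Ficoll and cultured for 72 h in RPMI 1640 with 10% FBS, at 10,000 cells/well, on 384-well plates carrying 70 pre-printed compounds at 1–10,000 nM in five tenfold steps, in duplicate. Viability came from CellTiter-Glo, normalised against DMSO and against 10 μM proteasome inhibitor. Any area under the curve given was derived from log-logistic curve fits in the drc and PharmacoGx R packages, and these fits had four parameters.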

[17] = system: myeloid leukemia patient primary cells Pat.2; assay: as above
Outline: as §3

[18] = system: myeloid leukemia patient primary cells Pat.12; assay: as above
Outline: as §3

[19] = system: myeloid leukemia patient primary cells Pat.3; assay: as above
Outline: as §3

[20] = system: myeloid leukemia patient primary cells Pat.13; assay: as above
Outline: as §3

[21] = system: myeloid leukemia patient primary cells Pat.15; assay: as above
Outline: as §3

O=C(C1CC1)N1CC[C@@H](C=C2NNC(=O)N2c2ccc(-c3ccc4occc4c3)cc2)C1
cell viability [%]
Settings | KG-1 | MOLM-13 | MV4-11 | THP-1 | [16] | [17] | [18] | [19] | [20] | [21]
1 nM | 95.4 | 101 | 88.1 | 98.7 | 80.8 | > 100 | 95.4 | 93.5 | 85.5 | 89.4
10 nM | 104 | 77.4 | 95.7 | 93.3 | 46.1 | 99 | 92.8 | > 100 | 96.1 | 95.2
100 nM | 112 | 75.1 | 81 | 104 | 50.2 | > 100 | > 100 | 84.2 | 92.9 | 95.7
1000 nM | 90.3 | 53.2 | 84 | 103 | 67 | 95.2 | 89 | 78.8 | 86.5 | 90.3
10000 nM | 82.4 | 44.7 | 59.9 | 101 | 47.8 | 91.7 | 84.1 | 77.1 | 80.1 | 84

Settings | area under dose-response curve
[1] | 0.292
[2] | 0.082
[3] | < 0.0301
[4] | < 0.0301
[5] | < 0.0301
[6] | 0.235
[7] | < 0.0301
[8] | < 0.0301
[9] | < 0.0301
[10] | < 0.0301
[11] | < 0.0301
[12] | < 0.0301
[13] | < 0.0301
[14] | < 0.0301
[15] | < 0.0301

C[C@H](NC(=O)c1sccc1OCc1ccc(Cl)cc1)c1ccccc1
cell viability [%]
Settings | KG-1 | MOLM-13 | MV4-11 | THP-1 | [16] | [17] | [18] | [19] | [20] | [21]
1 nM | 94 | 93.5 | 89.3 | 101 | 81.9 | > 100 | 90 | 91.3 | 92.9 | 92.7
10 nM | 103 | 95.7 | 102 | 103 | 67.4 | 95.8 | 98.4 | 83.9 | 89 | 95.6
100 nM | 92.1 | 96.8 | 83 | 99 | 73.5 | > 100 | 91.8 | 96.3 | 92.3 | 97.7
1000 nM | 91.9 | 109 | 96.1 | 103 | 80.2 | 97.8 | > 100 | 96.2 | 91.7 | 92.2
10000 nM | 61.4 | 102 | 59.9 | 92.1 | < 0 | 64 | 63.8 | 1.02 | 43.4 | 81.3

Settings | area under dose-response curve
[1] | 0.338
[2] | 0.13
[3] | < 0.0301
[4] | 0.0349
[5] | 0.253
[6] | 0.195
[7] | 0.121
[8] | 0.0955
[9] | < 0.0301
[10] | < 0.0301
[11] | 0.124
[12] | 0.0406
[13] | 0.0893
[14] | < 0.0301
[15] | 0.0329

Cc1c(-c2ccc(-c3ccccc3F)cc2)nc2ccc(F)cc2c1C(=O)O [Brequinar]
cell viability [%]
Settings | KG-1 | MOLM-13 | MV4-11 | THP-1 | [16] | [17] | [18] | [19] | [20] | [21]
1 nM | 105 | 80.9 | 106 | 99.9 | 58.9 | > 100 | 22 | > 100 | > 100 | 91.1
10 nM | 102 | 84.4 | 100 | 98.5 | 81.4 | 92.7 | 99 | 58 | 93.4 | 85.4
100 nM | 95 | 85.3 | 94.3 | 99 | 56.6 | 97.1 | 93.2 | 30 | 96.6 | 87.7
1000 nM | 105 | 95.9 | 110 | 102 | 77.9 | 95.2 | 98.4 | 33.1 | 94.2 | 98.9
10000 nM | 99 | 9.24 | 36.8 | 83.3 | 57.7 | 99.9 | 95 | 20.7 | 84.6 | 87.7

Settings | area under dose-response curve
[1] | 0.433
[3] | < 0.0301
[4] | < 0.0301
[6] | 0.532
[7] | 0.142
[8] | < 0.0301
[9] | < 0.0301
[10] | < 0.0301
[11] | 0.588
[12] | < 0.0301
[13] | < 0.0301
[14] | < 0.0301
[15] | < 0.0301

Nc1nc(Cl)nc2c1ncn2[C@H]1C[C@H](O)[C@@H](CO)O1 [Cladribine]
cell viability [%]
Settings | KG-1 | MOLM-13 | MV4-11 | THP-1 | [16] | [17] | [18] | [19] | [20] | [21]
1 nM | 101 | 100 | 129 | 102 | 95 | > 100 | 94.5 | 92.1 | 96.2 | 95.4
10 nM | 105 | 87.2 | 81 | 93.7 | 33.1 | 89.8 | 83.1 | 69.8 | 54.6 | 82.7
100 nM | 102 | 4.48 | -0.607 | 102 | 0.135 | 53.5 | 54.4 | 7.92 | 12.5 | 88.4
1000 nM | 9.9 | 0.607 | -0.0489 | 24.2 | 2.16 | 15.5 | 20.5 | 6.26 | 4.44 | 60.2
10000 nM | 5.04 | -0.282 | -0.0474 | 26.3 | 6.29 | 10.1 | 7.86 | 6.06 | 4.27 | 13.9

Settings | area under dose-response curve
[1] | 0.799
[2] | 0.768
[4] | 0.463
[5] | 0.62
[6] | 0.762
[7] | 0.616
[8] | 0.689
[9] | 0.609
[10] | 0.438
[11] | 0.652
[12] | 0.7
[13] | 0.611
[14] | 0.193
[15] | < 0.0301

O=C1c2cc([N+](=O)[O-])ccc2-n2c1nc1ccccc1c2=O [GNF-Pf-3777]
cell viability [%]
Settings | KG-1 | MOLM-13 | MV4-11 | THP-1 | [16] | [17] | [18] | [19] | [20] | [21]
1 nM | 99.6 | 99.5 | 106 | 103 | 61.7 | 98.3 | 98 | 93.1 | 94.2 | 90.6
10 nM | 95.6 | 122 | 101 | 92.2 | 47.7 | 93.2 | 96.3 | 86.9 | 96.4 | 89.1
100 nM | 110 | 108 | 97.1 | 85.6 | 77.9 | 95.5 | 99.1 | 72.7 | 96.6 | 96.8
1000 nM | 67.1 | 75.8 | 67.5 | 62.3 | 36.6 | 93.7 | 99.3 | 46.2 | 80.8 | 87.9
10000 nM | 27.6 | 18 | 2.64 | 30.9 | 15.5 | 62.3 | 78.6 | 20 | 35.8 | 40.2

Settings | area under dose-response curve
[1] | 0.292
[2] | 0.27
[4] | 0.0426
[5] | 0.0749
[6] | 0.158
[7] | 0.071
[8] | 0.14
[10] | < 0.0301
[11] | 0.265
[12] | 0.115
[13] | 0.0546
[14] | 0.0672

C=C(C)[C@H]1Cc2c(ccc3c2O[C@@H]2COc4cc(OC)c(OC)cc4[C@@H]2C3=O)O1 [Rotenone]
cell viability [%]
Settings | KG-1 | MOLM-13 | MV4-11 | THP-1 | [16] | [17] | [18] | [19] | [20] | [21]
1 nM | 93.6 | 103 | 97.2 | 98.9 | 38.7 | 62.7 | 94.8 | 48.6 | 62.5 | 44.9
10 nM | 83.7 | 77.8 | 70 | 104 | 75.5 | 86.5 | 89.2 | 57.4 | 80.5 | 66
100 nM | 43.7 | 67.2 | 58.4 | 76.2 | 47.7 | 68.7 | 66.1 | 35.7 | 57.6 | 43.9
1000 nM | 11.5 | 2.3 | 0.45 | 37.6 | 30 | 61.5 | 64.9 | 25.3 | 17.2 | 24.3
10000 nM | 11.6 | 0.733 | 0.258 | 24.5 | 20.9 | 57.5 | 49.5 | 18 | 11.9 | 37.6

Settings | area under dose-response curve
[1] | 0.99
[2] | 0.411
[3] | < 0.0301
[5] | 0.329
[6] | 0.55
[7] | 0.41
[8] | 0.187
[9] | 0.322
[10] | 0.0808
[11] | 0.57
[12] | 0.391
[13] | 0.399
[14] | 0.465
[15] | 0.112

Oc1ccc(Nc2nc(-c3ccc(Cl)cc3)cs2)cc1 [SKI II]
cell viability [%]
Settings | KG-1 | MOLM-13 | MV4-11 | THP-1 | [16] | [17] | [18] | [19] | [20] | [21]
1 nM | 98 | 80 | 97.2 | 100 | 49.5 | 95.5 | 89.9 | 56.2 | 77.6 | 69.6
10 nM | 103 | 104 | 99.2 | 96.8 | 47.7 | 95.9 | 92.9 | 92.1 | 94.2 | 93.3
100 nM | 97.2 | 110 | 114 | 103 | > 100 | 95.1 | 95.8 | 89.3 | 89.3 | 85.9
1000 nM | 81.7 | 106 | 95.9 | 86.4 | 9.05 | 94.2 | > 100 | 44.4 | 92.9 | 87.3
10000 nM | 32.7 | 44.3 | 4.54 | 8.38 | 81.9 | 53.1 | 53.9 | 0.909 | 32.9 | 33.6

Settings | area under dose-response curve
[2] | 0.291
[3] | < 0.0301
[4] | 0.0376
[5] | 0.424
[6] | 0.341
[7] | 0.304
[8] | 0.0605
[9] | 0.054
[10] | 0.0339
[11] | 0.238
[12] | 0.0533
[13] | 0.0895
[14] | 0.0495
[15] | 0.054
